{"source": "PubChem BioAssay AID489006", "about": "(Sanford-Burnham Center for Chemical Genomics, 2010)", "note": "Active and inactive are the calls of the source. The rule behind the calls is not given here.", "data": [{"system": "Jurkat NF-kB reporter, luminescence", "test": "Jurkat NF-kB signaling inhibitors – cell-based, luminescence, selectivity assay for B-cell receptor NF-kB inhibitor project, dose response (AID 489006)", "values": [{"smiles": "CC1=CC(C)(C)Nc2ccc(OC(=O)C(Cc3ccccc3)N3C(=O)c4ccccc4C3=O)cc21", "note": "(stereo not drawn)", "IC50": "7.32 µM"}, {"smiles": "CN(C)c1cc[n+](Cc2c(Cl)cccc2Cl)cc1", "IC50": "> 80 µM (inactive)"}, {"smiles": "CC1CCC/C=C/C2CC(O)CC2C(O)/C=C/C(=O)O1", "note": "(stereo not drawn)", "IC50": "> 80 µM (inactive)"}, {"smiles": "Cc1ccc(-c2nn3c(C)nnc3c3ccccc23)cc1S(=O)(=O)N1CCN(CCO)CC1", "IC50": "43.4 µM (inactive)"}, {"smiles": "Cc1ccccc1-c1cc(C(=O)Nc2sc(C(=O)OC(C)C)c(C)c2C#N)c2ccccc2n1", "IC50": "> 80 µM (inactive)"}, {"smiles": "COc1ccc(C(=O)n2nc(-c3ccc(Cl)cc3)nc2N)cc1OC", "IC50": "2.9 µM"}, {"smiles": "CCN1C(=O)c2cccc3c(S(=O)(=O)Nc4ccccn4)ccc1c23", "IC50": "40.5 µM (inactive)"}, {"smiles": "CC1=CC(C)(C)Nc2ccc(OC(=O)CN3C(=O)CCC3=O)cc21", "IC50": "1.54 µM"}]}]}
